{"source": "paper PMC4313523", "about": "“Decolorization of Anthraquinonic Dyes from Textile Effluent Using Horseradish Peroxidase: Optimization and Kinetic Study” (The Scientific World Journal, 2015)", "key": {"[1]": {"tested_on": "T1, horseradish peroxidase (HRP)", "T1 construct": "gene PRXC1A; commercial enzyme from Sigma-Aldrich, 250 purpurogallin units per mg", "assay": "dye decolorization initial rates, fit to ping-pong bi-bi model with dye inhibition", "format": "biochemical", "settings": "substrate inhibition (dead-end complex)", "description": "dye decolorization initial rates, fit to ping-pong bi-bi model with dye inhibition on horseradish peroxidase (HRP)"}, "[2]": {"tested_on": "T1, horseradish peroxidase (HRP)", "assay": "dye decolorization initial rates, fit to ping-pong bi-bi model with H2O2 inhibition (best fit)", "format": "biochemical", "settings": "read-out: Hydrogen peroxide inhibition"}}, "note": "Where two headings read alike, the source gives them in different places.", "data": [{"compound": "Cc1cc(C)c(Nc2cc(S(=O)(=O)O)c(N)c3c2C(=O)c2ccccc2C3=O)c(C)c1NC(=O)C(Br)=CBr", "note": "[AB 225, C.I. Acid Blue 225]", "values": [{"measurement": "Dye inhibition", "setting": "[1]; H2O2 fixed at 0.1 mM, dye 0.015-0.051 mM, pH 5.5, 24 °C, 0.04 IU/mL HRP, R2 0.9602", "result": 0.0126, "unit": "mM"}, {"measurement": "Km", "setting": "[2]; co-substrate H2O2 varied at dye 0.029 mM, pH 5.5, 24 °C, 0.04 IU/mL HRP, R2 0.9908", "result": 152, "unit": "µM"}]}, {"compound": "C.I. Acid Violet 109 [AV 109]", "values": [{"measurement": "Dye inhibition", "setting": "[1]; H2O2 fixed at 0.06 mM, dye 0.012-0.043 mM, pH 5.25, 24 °C, 0.15 IU/mL HRP, R2 0.9225", "result": 0.0080, "unit": "mM"}, {"measurement": "Km", "setting": "[2]; co-substrate H2O2 varied at dye 0.018 mM, pH 5.25, 24 °C, 0.15 IU/mL HRP, R2 0.9902", "result": 330, "unit": "µM"}]}]}
